From US10889553B2, “Asymmetric triazole benzamide derivatives and the compositions and methods of treatment regarding the same” (NysnoBio Ireland DAC, priority 2017, dated 2021)
Like-named read-outs stand apart in the source and are kept apart here.

How the values were obtained:
CYP2D6 = CYP2D6 (Homo sapiens, UniProt P10635); experiment: CYP inhibition assay; assay type: in vitro ADME; details: read-out: % Inhibition at 30 μM CYP 2D6
CDK 4/6 or other kinases = experiment: Kinase panel assay (whole panel); assay type: biochemical; details: 10 μM, in words
Excerpt: (§1) Compound 42 was also screened in a kinase panel assay.

CDK2/Cyclin A = CDK2/Cyclin A (Homo sapiens, UniProt P24941); experiment: Kinase panel assay; assay type: biochemical
Excerpt: as §1

CDK4/CyclinD1 = CDK4/CyclinD1 (Homo sapiens, UniProt P11802); experiment: Kinase panel assay; assay type: biochemical
Excerpt: as §1

CYP2C19 = CYP2C19 (Homo sapiens, UniProt P33261); experiment: CYP inhibition assay; assay type: in vitro ADME; details: read-out: % Inhibition at 30 μM CYP 2C19
44 protein targets = experiment: Selectivity screen against 44 protein targets (whole panel); assay type: binding; details: 10 μM; % inhibition less than 50% is considered no effect
Excerpt: If the % inhibition is less than 50%, the test compounds is consider to have no effect.

Ovarian OAW28 (OAW2B) = experiment: Cancer cell proliferation assay (acid phosphatase); assay type: cell-based; details: Homo sapiens, OAW-28
Summary of the method: (§2)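 Seed 4×10^4 cells/ml, overnight 37° C./5% CO2; add compound (varying conc., triplicate); incubate 72 hrs; wash PBS; acid phosphatase substrate pH 5.5, 2 h; stop NaOH; read 405/620 nm; % inhibition vs DMSO.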

A427 (lung) = experiment: Cancer cell proliferation assay (acid phosphatase); assay type: cell-based; details: Homo sapiens, A-427; Table 6C, data of FIG. 2
Summary of the method: as §2

Ovarian (ES-2) = experiment: Cancer cell proliferation assay (acid phosphatase); assay type: cell-based
Summary of the method: as §2

HT-29 (colon) = experiment: Cancer cell proliferation assay (acid phosphatase); assay type: cell-based; details: Homo sapiens, Table 6C, data of FIG. 2
Summary of the method: as §2

Ovarian (A2780) = experiment: Cancer cell proliferation assay (acid phosphatase); assay type: cell-based; details: Homo sapiens
Summary of the method: as §2

SKOV3 (ovarian) = experiment: Cancer cell proliferation assay (acid phosphatase); assay type: cell-based; details: Homo sapiens, SK-OV-3; Table 6D, another set of cell proliferation assay
Summary of the method: as §2

H292 (lung) = experiment: Cancer cell proliferation assay (acid phosphatase); assay type: cell-based; details: Homo sapiens, NCI-H292; Table 6C, data of FIG. 2
Summary of the method: as §2

TOV-112D (ovarian) = experiment: Cancer cell proliferation assay (acid phosphatase); assay type: cell-based; details: Homo sapiens, TOV112D
Summary of the method: as §2

SW626 (ovarian) = experiment: Cancer cell proliferation assay (acid phosphatase); assay type: cell-based; details: Homo sapiens
Summary of the method: as §2

Mantle Cell Mino = experiment: Cancer cell proliferation assay (acid phosphatase); assay type: cell-based; details: Homo sapiens, Table 6E
Summary of the method: as §2

Ovarian OVCAR-3 = experiment: Cancer cell proliferation assay (acid phosphatase); assay type: cell-based; details: Homo sapiens, Table 6E
Summary of the method: as §2

JEKO-1 (lymophoma) = experiment: Cancer cell proliferation assay (acid phosphatase); assay type: cell-based; details: Homo sapiens
Summary of the method: as §2

Ovarian (OAW42) = experiment: Cancer cell proliferation assay (acid phosphatase); assay type: cell-based; details: Homo sapiens, OAW-42
Summary of the method: as §2

Colo205 (colon) = experiment: Cancer cell proliferation assay (acid phosphatase); assay type: cell-based; details: Homo sapiens, COLO 205; Table 6C, data of FIG. 2
Summary of the method: as §2

[1] = Table 6D, another set of cell proliferation assay

Chain of CYP2D6 (P10635 whole entry): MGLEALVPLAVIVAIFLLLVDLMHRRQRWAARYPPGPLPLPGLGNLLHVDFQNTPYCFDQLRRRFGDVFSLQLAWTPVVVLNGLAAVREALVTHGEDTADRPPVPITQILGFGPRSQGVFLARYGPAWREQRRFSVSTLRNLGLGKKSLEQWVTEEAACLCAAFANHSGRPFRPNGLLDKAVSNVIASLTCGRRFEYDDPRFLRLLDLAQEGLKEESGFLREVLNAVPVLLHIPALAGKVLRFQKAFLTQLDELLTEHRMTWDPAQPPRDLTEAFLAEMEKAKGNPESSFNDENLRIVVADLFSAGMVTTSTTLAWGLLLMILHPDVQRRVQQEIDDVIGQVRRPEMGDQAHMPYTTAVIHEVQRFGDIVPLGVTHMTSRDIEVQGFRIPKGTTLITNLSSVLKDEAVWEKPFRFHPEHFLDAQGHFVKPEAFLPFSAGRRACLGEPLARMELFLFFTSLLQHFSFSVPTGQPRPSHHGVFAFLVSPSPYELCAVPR
Chain of CDK4/CyclinD1 (P11802 whole entry, species assumed): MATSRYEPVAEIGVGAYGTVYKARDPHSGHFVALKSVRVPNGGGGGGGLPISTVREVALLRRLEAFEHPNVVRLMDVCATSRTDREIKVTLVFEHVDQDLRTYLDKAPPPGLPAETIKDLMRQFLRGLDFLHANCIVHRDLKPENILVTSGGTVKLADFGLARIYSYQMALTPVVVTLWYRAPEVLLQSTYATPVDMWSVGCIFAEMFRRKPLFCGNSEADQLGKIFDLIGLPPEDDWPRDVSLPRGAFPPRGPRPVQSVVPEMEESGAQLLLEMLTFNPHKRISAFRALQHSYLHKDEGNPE
Chain of CDK4/CyclinD1 (P24385 whole entry partner, species assumed): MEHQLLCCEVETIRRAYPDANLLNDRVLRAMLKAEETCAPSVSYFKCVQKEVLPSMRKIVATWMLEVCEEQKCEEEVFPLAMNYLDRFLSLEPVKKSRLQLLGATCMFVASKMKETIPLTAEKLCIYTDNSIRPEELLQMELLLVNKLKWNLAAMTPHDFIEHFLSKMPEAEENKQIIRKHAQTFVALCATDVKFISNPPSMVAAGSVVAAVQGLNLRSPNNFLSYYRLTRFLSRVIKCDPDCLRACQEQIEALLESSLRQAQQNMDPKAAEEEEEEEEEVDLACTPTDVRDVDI
Chain of CYP2C19 (P33261 whole entry): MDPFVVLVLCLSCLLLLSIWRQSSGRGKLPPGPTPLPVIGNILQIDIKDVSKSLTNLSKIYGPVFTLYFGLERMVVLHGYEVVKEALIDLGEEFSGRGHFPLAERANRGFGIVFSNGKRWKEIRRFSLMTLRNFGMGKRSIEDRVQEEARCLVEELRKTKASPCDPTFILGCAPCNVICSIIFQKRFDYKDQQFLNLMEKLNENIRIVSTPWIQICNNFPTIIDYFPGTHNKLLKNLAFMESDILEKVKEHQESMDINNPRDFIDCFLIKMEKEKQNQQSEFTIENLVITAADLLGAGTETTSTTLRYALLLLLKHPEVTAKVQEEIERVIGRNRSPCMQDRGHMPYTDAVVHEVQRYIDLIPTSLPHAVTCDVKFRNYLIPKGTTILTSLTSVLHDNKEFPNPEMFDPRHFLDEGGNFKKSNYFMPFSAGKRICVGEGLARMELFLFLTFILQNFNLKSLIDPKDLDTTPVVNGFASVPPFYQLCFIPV

**Q.** For Cc1ccccc1C(=O)Nc1nc(NC(=O)c2ccccc2C)n(-c2ccc(OC(F)(F)F)cc2)n1 [Compound 42, N,N′-(1-(4-(trifluoromethoxy)phenyl)-1H-1,2,4-triazole-3,5-diyl)bis(2-methylbenzamide)], which inhibition at 30 μM (CYP2D6) is on record?
**A.** Its inhibition at 30 μM is 6.87%.

**Q.** And the “inhibition of CDK 4/6 or other kinases” value (CDK 4/6 or other kinases)?
**A.** Its value is “does not inhibit”.

**Q.** What about the inhibition at 10 µM (CDK2/Cyclin A) of the same compound?
**A.** The inhibition at 10 µM was 4%.

**Q.** And the inhibition at 10 µM (CDK4/CyclinD1)?
**A.** The inhibition at 10 µM was 12%.

**Q.** What about the inhibition at 30 μM (CYP2C19) of the same compound?
**A.** The inhibition at 30 μM was 60.5%.

**Q.** And the “effect against the 44 protein targets” value (44 protein targets)?
**A.** The value was “no effects”.

**Q.** What about the EC50 (Ovarian OAW28 (OAW2B); [1]) of the same compound?
**A.** Its EC50 is 114 nM.

**Q.** What about the IC50 (Ovarian OAW28 (OAW2B); Table 6E) of the same compound?
**A.** The IC50 was 140 nM.

**Q.** What about the IC50 (A427 (lung)) of the same compound?
**A.** The IC50 was 0.15 µM.

**Q.** And the EC50 (Ovarian (ES-2); [1])?
**A.** Its EC50 is 42 nM.

**Q.** And the IC50 (Ovarian (ES-2); Table 6E)?
**A.** Its IC50 is 57 nM.

**Q.** And the IC50 (HT-29 (colon))?
**A.** Its IC50 is 0.2 µM.

**Q.** What about the EC50 (Ovarian (A2780); [1]) of the same compound?
**A.** Its EC50 is 58 nM.

**Q.** What about the IC50 (Ovarian (A2780); Table 6E) of the same compound?
**A.** The IC50 was 84 nM.

**Q.** And the EC50 (SKOV3 (ovarian))?
**A.** The EC50 was 376 nM.

**Q.** And the IC50 (H292 (lung))?
**A.** Its IC50 is 0.16 µM.

**Q.** What about the IC50 (TOV-112D (ovarian); Table 6C, data of FIG. 2, read-out: IC50 (μM) TOV-112D (ovarian)) of the same compound?
**A.** The IC50 was 0.13 µM.

**Q.** And the EC50 (TOV-112D (ovarian); Table 6D, another set of cell proliferation assay, read-out: EC50 (nM) Ovarian (TOV0112D))?
**A.** The EC50 was 98 nM.

**Q.** What about the IC50 (TOV-112D (ovarian); Table 6E, read-out: Proliferation IC50 (nM) Ovarian TOV112D) of the same compound?
**A.** The IC50 was 0.103 µM.

**Q.** And the IC50 (SW626 (ovarian); Table 6C, data of FIG. 2)?
**A.** Its IC50 is 0.3 µM.

**Q.** And the EC50 (SW626 (ovarian); [1])?
**A.** Its EC50 is 334 nM.

**Q.** What about the IC50 (Mantle Cell Mino) of the same compound?
**A.** Its IC50 is 345 nM.

**Q.** And the IC50 (Ovarian OVCAR-3)?
**A.** Its IC50 is 140 nM.

**Q.** What about the EC50 (JEKO-1 (lymophoma); Table 6D, another set of cell proliferation assay, read-out: EC50 (nM) Mantle cell (Jeko-1)) of the same compound?
**A.** Its EC50 is 154 nM.

**Q.** And the IC50 (JEKO-1 (lymophoma); Table 6E, read-out: Proliferation IC50 (nM) Mantle Cell Jeko-1)?
**A.** Its IC50 is 154 nM.

**Q.** What about the EC50 (Ovarian (OAW42); [1]) of the same compound?
**A.** Its EC50 is 166 nM.

**Q.** What about the IC50 (Ovarian (OAW42); Table 6E) of the same compound?
**A.** The IC50 was 166 nM.

**Q.** What about the IC50 (Colo205 (colon)) of the same compound?
**A.** Its IC50 is 0.2 µM.
